Measurements published in ChEMBL document CHEMBL3507680, “University of Dundee, Gates Library screen for HepG2 cell viability”.

Test: Human HepG2 cell viability assay in 384 well format
Type: toxicity, cell-based
Set-up: dose 125 nL, time 70.5 hour; cytotoxicity at 70.5 h: concentration not given beside the values
Settings: HepG2 cells, read-out: Inhibition

SMILES	cytotoxicity at 70.5 h [%]
CC(=O)N(Cc1ncc(C(C)C)o1)C1CCN(Cc2nccn2C)C1 (stereo unspecified)	-0.826
Cc1noc(C)c1C(=O)N1CCC2(CC1)c1nc[nH]c1CCN2C	-3.9
CC(=O)NCCNC(=O)CN1CCCC(Cn2cncn2)C1 (stereo unspecified)	-4.84
CN(C)c1nc(NCc2ccccc2Cn2cccn2)ncc1F	5.75
CC(NCCNS(=O)(=O)c1cccc(Cl)c1)C1CCOCC1 (stereo unspecified)	-6.77
CC(=O)N[C@@H]1C[C@H](c2ccc(OCCO)cc2)OC2(CCOCC2)C1	7.41
CN(Cc1cncnc1)[C@H]1CN(Cc2ccco2)[C@@H]2CCCO[C@@H]21	-9.91
CCN(CC)C(=O)Cn1ccc2cc(NC(=O)COC)ccc21	-2.77
Cc1nc2n(n1)CC(NCCc1cccs1)CC2 (stereo unspecified)	0.958
CCc1ccccc1N1CC(c2nnc(N)s2)CC1=O (stereo unspecified)	-13.1
Cc1c(C)n(Cc2ccncc2)c2nc3c(c(N)c12)CCCCCC3	30.2
CCOc1nnc(CN2CCC(c3nc4ccccc4[nH]3)CC2)s1	1.06
O=C1CC(c2ncc(-c3ccc4c(c3)OCCO4)[nH]2)CN1C1CC1 (stereo unspecified)	-7.8
Nc1nccc(NCc2cc3n(n2)CCCN(C2CCCCC2)C3)n1	-1.68
CC(C)C[C@H](Nc1nc(C2CCCC2)nc2c1cnn2C)C(N)=O	-6.77
CCN(Cc1cccc(F)c1)Cc1nc2c(cnn2C)c(=O)[nH]1	14.7
Cc1ccc(C)c(NC(=O)Nc2c[nH]c(=O)[nH]c2=O)c1	-27.8
COCc1cc(NCCc2ccc(F)cc2)n2nccc2n1	-0.706
Cc1ccc(OCC(O)CN(C)CC(=O)Nc2cc(C)on2)c(C)c1 (stereo unspecified)	10.1

SMILES	cytotoxicity at 70.5 h [%]
Cn1cc(C2CC(=O)NC23CCN(c2ncc(F)cn2)CC3)cn1 (stereo unspecified)	25.2
CC(C)N1CCCC(C(=O)N2CCN(c3cccc(C(=O)O)c3)CC2)C1 (stereo unspecified)	23.2
CN1CCCC(c2cccc(-c3cccc(Cl)c3)n2)C1 (stereo unspecified)	18
O=C(CN1CCN(CCO)CC1)NCc1ccc(Cl)s1	-1.03
CCN(CC)c1ccc(NS(=O)(=O)c2cnn(C(C)C)c2)cn1	-6.47
CO[C@H]1CCN(Cc2ccoc2)C[C@@H]1Cc1ccccc1	20.5
CC1=N[C@@]2(CC[C@@H]3CNC[C@@H]32)C(=O)N1CC(C)C	31.4
CN(C)c1ccc(NC(=O)c2cccc(N(C)C)c2)nc1	15.4
CCCn1nc(-c2nc(Cc3ccc(OC)cc3)no2)ccc1=O	-8.43
Cc1csc(C2(NCc3nnc(-c4ccco4)o3)CCCC2)n1	0.188
CCOCCCNC(=O)C(NC(=O)Cc1cccs1)c1ccccc1 (stereo unspecified)	4.71
COc1ccc(-c2cnc(N)nc2C2CCCNC2)cc1 (stereo unspecified)	0.112
Cc1noc(C)c1CNC(=O)Nc1ccc(N2CCSCC2)cc1	-9.93
CN(C)C(=O)CN1C[C@H]2CCN(Cc3ccccc3)CC[C@H]2S1(=O)=O	-8.74
CS(=O)(=O)CCC(=O)N1CCC(c2ccc(F)c(F)c2)CC1	2.26
CCOCC(=O)N1CCCn2c(CN3CCCCC3)nnc2C1	-1.12
Cc1cc(CNC(=O)N2CCc3ccccc3C2CO)c(C)o1 (stereo unspecified)	-5.72
Cn1cc(N2CCC3(CCN(S(=O)(=O)C4CC4)C3)C2=O)cn1 (stereo unspecified)	4.38
CC(C)N1CCn2c(COCC3CCOCC3)cnc2C1C (stereo unspecified)	-1.85

SMILES	cytotoxicity at 70.5 h [%]
Cc1cnn(CCNCC(O)c2cccc(Br)c2)c1 (stereo unspecified)	-8.97
CS(=O)(=O)NCCCNC(=O)NCc1ccccc1	-8.73
Cc1nccc(C(=O)N2CCCC(c3cc(C(F)(F)F)[nH]n3)C2)n1 (stereo unspecified)	-2.27
CN(CCOCC1CC1)C(=O)Nc1ccc([S+](C)[O-])c(F)c1 (stereo unspecified)	21.5
CC(C)CCN(C(=O)c1cc2c([nH]c1=O)CCCC2=O)C1CC1	-2.36
Cc1ccc(-n2ncc(C(=O)N(C)C3CCN(C)CC3)c2N)cc1C	8.36
CCCS(=O)(=O)NCCc1ncc(CC)s1	-0.431
CCC(C)NC(=O)c1cncc(Br)c1 (stereo unspecified)	-2.39
Cc1cc(C(=O)N2CCCC2)ccc1NCc1nc(CC(C)C)no1	-9.73
O=C(O)[C@@H]1CN(CCOCCO)C[C@H]1c1ccccc1	30
CC(C)Oc1ncccc1CNC(=O)c1cc(C2CC2)on1	16
Cn1ccnc1C(NCc1ccc(Br)cc1)c1ccccc1 (stereo unspecified)	-0.0759
COc1ccc(C)cc1-n1c(COC(C)C)n[nH]c1=O	-18.9
CC(C)c1nccc([C@@H]2C[C@@H]3CCN(Cc4ccoc4)C[C@H]3O2)n1	-4.41
COc1cccc(SCC(=O)N2CCC(N3CCCC3=O)CC2)c1	-6.36
O=C(CC1CC1)N1CCC2(COCc3cnc(-c4ccccc4)nc32)C1 (stereo unspecified)	-8.52
COc1c(C2CCCN2CC(=O)N2CCCCC2)c(C)nn1C (stereo unspecified)	4.89
Cc1cc(NC(N)=O)ccc1C(=O)N(C)C	4.17
